Data set [1] relates to Mtb (H37Rv). As to the kind of experiment: MIC on Mtb (H37Rv) in liquid. The class given is cell-based, Mycobacterium tuberculosis. To be noted: for MIC: Mycobacterium tuberculosis.
The test system of data set [2] is FAO. The following applies: murine and human monocyte-derived macrophages; cited from earlier work.
For data set [3], the system named is Mtb. As to the kind of experiment: MIC against Mtb in human THP1 cells. The class given is cell-based, Mycobacterium tuberculosis. From the text: If CPT-1 and 3-KAT are the relevant antimicrobial targets, respectively, concordance in the potency of the compounds is anticipated in the assays. […] The MIC of TMZ against Mtb in human THP1 cells was approximately […].

Data set [4] deals with BMDMs. As to the kind of experiment: Macrophage viability (calcein-AM). To be noted: 72 hours. It counts as cell-based, murine. As for the experimental part:
FIG. 4B depicts the effect of metformin and oxfenicine on macrophage viability. BMDMs were treated with the indicated concentration of compound for 72 hours, and viability was assessed using the cellular dye, calcein-AM, and normalized to untreated controls (--). Data are mean+/−SD.
Importantly, plasma concentrations of TMZ in patients treated for angina (60 mg/day) are 70-100 nM, in line with the ability of TMZ to inhibit FAO in intact hearts at 100 nM. […] BMDMs were treated with the indicated concentration of compound for 72 hours, and viability was assessed using the cellular dye, calcein-AM, and normalized to untreated controls (--).
The antimicrobial activity and FAO inhibition was analyzed for cellular toxicity. BMDMs were treated with the indicated concentration of compound for 72 hours, and viability was assessed using the cellular dye, calcein-AM, and normalized to untreated controls (--).

On the set-up of data set [5]: species or system mice. The following applies: in vivo. As for the experimental part:
A pharmacokinetics (PK) study of TMZ in C57BL/6 mice was performed. […] Therefore, subcutaneous osmotic pumps were used to maintain steady state plasma levels of TMZ. A second PK study was performed using subcutaneous osmotic pumps (Alzet Osmotic Pumps) to establish the optimal infusion rate and dosing for a subsequent efficacy study. TMZ steady state exposure in mice was successfully achieved with the use of subcutaneous osmotic pumps.

Data set [6] has as its system H37Rv. As to the kind of experiment: Efficacy of TMZ in acute TB infection in mice (CFU in lungs and spleen). It counts as in vivo, Mycobacterium tuberculosis. The following applies: 16.8 mg/kg/day, 2 weeks.
Data set [7] relates to M. abscessus. As to the kind of experiment: Intracellular growth of M. abscessus in RAW264.7 cells and BMDMs (CFU). It counts as cell-based, Mycobacterium abscessus. The following applies: RAW264.7 cells and wt BMDMs, 500 nM.
Data set [8] concerns p62. In words: Autophagy induction: p62 co-localization with Mtb and p62 puncta in BMDMs. It counts as cell-based. The following applies: 5 nM. As to the method: Wild type BMDMs were infected with H37Rv expressing DsRed at MOI 1:5 for 4 hours. After bacterial uptake, the culture medium was supplemented with TMZ (5 nm). At 24 hours post infection (hpi), samples were fixed and immunostained with p62 (green). Alternatively, bacterial numbers were enumerated by CFU at 3 days post infection (dpi). For IF, images were captured using a confocal microscope equipped with a 60× oil immersion objective lens. To quantify co-localation of Mtb and autophagosomes each bacteria was converted to a region of interest (ROI) and the mean fluorescence intensity of the p62 signal was measured. To assess autophagy induction, the total p62 puncta per cell in shapes that were untreated or treated with TMZ. IFN-γ, which activates autophagy, was used as a positive control.

Data set [9] relates to total cellular ROS. In words: Total cellular ROS (CellRox staining) in macrophages. It counts as cell-based. As for the experimental part: Total cellular ROS levels were compared in FAO inhibitor-treated and untreated samples using CellRox (Molecular Probes) staining. Macrophages were infected as previously described and co-localization of Mth with subunits of the NADPH oxidase (p40^phox and gp91^phox/NOX2) were monitored in FAO inhibitor-treated and untreated samples. To determine whether FAO inhibition induced oxidative stress in the host, uninfected RAW 264.7 cells were treated with TMZ at 5 nM and 500 nM and ETM at 50 μM and total cellular ROS was determined at 1, 3, and 24 hours post-treatment using CellRox dye. In parallel, tert-butyl hydroperoxide (0.5 mM tBHP) was used as a positive control. The samples were imaged using confocal microscopy and the fluorescence intensity of each cell was quantified.

Data set [10] has as its system mitochondrial ROS. As to the kind of experiment: Mitochondrial ROS (mitoSOX) in uninfected BMDMs. The class given is cell-based. To be noted: TMZ 500 nM 3 hours; antimycin 30 μM, rotenone 10 μM 30 minutes. As for the experimental part:
Mitochondrial ROS production was measured in macrophages treated with TMZ in combination with ETC inhibitors antimycin and rotenone. Rotenone inhibits Complex I (NADH coenzymeQ reductase) and antimycin is an inhibitor of Complex III (coenzyme Q: cytochrome C oxidoreductase). Uninfected BMDMs were treated with 500 nM TMZ for 3 hours. Thirty minutes prior to termination of the experiment, antimycin (30 μM) and rotenone (10 μM) were added. Menadione (60 μM, 30 mins), which causes mitochondrial depolarization, was used as a positive control. Mitochondrial ROS production was increased in samples treated with TMZ, antimycin and rotenone (FIG. 14A). However, contrasting results were observed when TMZ was used in combination with the ETC inhibitors.

Data set [11] concerns BMDMs. In words: OCR and ECAR by SeaHorse metabolic flux assay in BMDMs. It counts as cell-based. The following applies: wild type BMDMs, 5 nM, 3 hours. As for the experimental part:
(§1) Oxygen consumption rate (OCR) and extracellular acidification rate (ECAR) was measured using SeaHorse Analyzers in uninfected wild type and FAO-deficient carnitine palmitoyltransferase 2 KO (Cpt2 cKO) BMDMs treated with 5 nM TMZ. Additionally, whether FAO inhibitors promoted pro-inflammatory signaling was tested. Wild type macrophages were infected with H37Rv and treated with 5 nM TMZ for 24 and 72 hpi. Following filter sterilization, sample supernatants were examined for pro-inflammatory cytokines including, IL-1β, IL-6, TNF-α, and the anti-inflammatory cytokine IL-10.

Data set [12] concerns IL-6, TNF-α, IL-1α/β, and IL-10. As to the kind of experiment: Cytokine levels in supernatants of BMDMs. The class given is cell-based. To be noted: wild type BMDMs, 5 nM, 24 and 72 hpi. As for the experimental part: as §1
Data set [13] has as its system LC3. As to the kind of experiment: Autophagy flux (LC3 with and without bafilomycin A1) in H37Rv-infected BMDMs. The following applies: 500 nM, 3 hours. The class given is cell-based.
Data set [14] deals with gp91phox/NOX2. As to the kind of experiment: Co-localization of Mtb with NADPH oxidase subunit NOX2 in BMDMs. It counts as cell-based. The following applies: 24 hours.
Data set [15] concerns the target T1, long-chain 3-KAT (Rattus norvegicus, UniProt Q60587).
T1 construct: from tissue; host or cells: rat heart mitochondria
The following applies: rat heart mitochondria; cited from earlier work.

Data set [16] relates to FAO. The following applies: cited from earlier work.
For data set [17] the following is noted: human, in vivo, 20 mg; cited from earlier work.
Setting [18] is: Mtb (H37Rv) in liquid, read-out: MIC.

The source of these data is patent publication US12616691B2, “Use of fatty acid oxidation inhibitors as antimicrobials” (Washington University in St. Louis, priority 2018, dated 2026).

In brackets after ≈: the same amount, converted by molar mass. Read-outs that look alike come from different tables or passages of the source.

T1 sequence (Q60587 35-475): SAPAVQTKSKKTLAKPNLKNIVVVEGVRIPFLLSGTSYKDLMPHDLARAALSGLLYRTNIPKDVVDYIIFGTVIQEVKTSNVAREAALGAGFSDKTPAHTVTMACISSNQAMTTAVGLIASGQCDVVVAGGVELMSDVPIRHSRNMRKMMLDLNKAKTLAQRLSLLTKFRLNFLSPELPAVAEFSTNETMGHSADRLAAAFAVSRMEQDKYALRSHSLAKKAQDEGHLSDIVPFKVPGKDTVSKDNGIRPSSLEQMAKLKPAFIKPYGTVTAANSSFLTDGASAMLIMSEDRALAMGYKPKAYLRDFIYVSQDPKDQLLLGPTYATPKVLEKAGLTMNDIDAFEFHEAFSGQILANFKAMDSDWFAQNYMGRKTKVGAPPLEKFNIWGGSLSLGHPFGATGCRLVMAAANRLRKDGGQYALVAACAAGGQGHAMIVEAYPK
T1 sequence (Q64428 37-763 partner): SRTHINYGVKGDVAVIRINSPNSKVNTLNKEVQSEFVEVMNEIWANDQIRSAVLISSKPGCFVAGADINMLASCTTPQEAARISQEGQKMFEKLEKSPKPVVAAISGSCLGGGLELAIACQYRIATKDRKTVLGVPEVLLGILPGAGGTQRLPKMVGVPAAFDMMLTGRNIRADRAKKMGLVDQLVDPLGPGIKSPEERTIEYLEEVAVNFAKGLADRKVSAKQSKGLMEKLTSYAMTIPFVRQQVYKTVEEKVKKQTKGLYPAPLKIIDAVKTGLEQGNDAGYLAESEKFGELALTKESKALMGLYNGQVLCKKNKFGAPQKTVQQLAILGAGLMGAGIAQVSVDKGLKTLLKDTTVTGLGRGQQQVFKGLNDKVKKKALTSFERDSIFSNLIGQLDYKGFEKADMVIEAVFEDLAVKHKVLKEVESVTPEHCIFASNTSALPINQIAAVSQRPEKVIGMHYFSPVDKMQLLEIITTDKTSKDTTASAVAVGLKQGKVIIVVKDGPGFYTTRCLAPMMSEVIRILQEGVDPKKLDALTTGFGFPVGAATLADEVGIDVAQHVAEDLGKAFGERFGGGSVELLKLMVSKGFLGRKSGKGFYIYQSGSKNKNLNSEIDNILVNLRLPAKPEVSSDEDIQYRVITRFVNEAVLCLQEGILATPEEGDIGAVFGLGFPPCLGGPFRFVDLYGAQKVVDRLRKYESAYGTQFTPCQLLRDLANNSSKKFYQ

Consider `CCOC(=O)C1(CCCCCCOc2ccc(Cl)cc2)CO1` (centres unmarked) [Etomoxir, ethyl 2-[6-(4-chlorophenoxy)hexyl]oxirane-2-carboxylate], for which the MIC (usually the lowest concentration that inhibits growth of the organism) in data set [1] (setting [18]) is more than 250 µM. Moreover, in [1] (ten times the dose that inhibited intracellular Mtb), the “direct effect on Mtb growth” value is “did not directly prevent Mtb growth”. Further, the “concentration that blocks FAO in macrophages” value in [2] is 10 to 25 µM.
On to `NNC(=O)c1ccncc1` [INH, isoniazid], for which the minimum inhibitory concentration (MIC) in data set [1] (setting [18]) was less than 0.3 µM.
With `CN(C)C(=N)N=C(N)N` [Metformin, metformin], the MIC in [1] (setting [18]) was more than 15000 µM.
The same measure, in the same setting: the value for `C1CCC(C(CC2CCCCN2)C2CCCCC2)CC1` (centres unmarked) [Perhexiline, 2-(2,2-dicyclohexylethyl)piperidine] was more than 100 µM.
With `COc1ccc(CN2CCNCC2)c(OC)c1OC` [Trimetazidine, 1-(2,3,4-trimethoxybenzyl)piperazine], the minimum inhibitory concentration (MIC) in [1] (H37RV) was 1000 µM (≈ 266 µg/mL). Further, the “MIC against Mtb in human THP1 cells” value in data set [3] was “approximately 50 nM”. In data set [4], the macrophage toxicity entry is given as “not related to macrophage toxicity”. Besides, the “predicted free drug concentrations” value in [5] (C57BL/6, mouse, 16.8 mg/kg/day) is on record as 135 nM. Also, in data set [5] (mouse), the half-life result is on record as “less than an hour”. Also, in data set [6] (C57Bl/6 mice), the “reduction in Mtb CFUs in the lungs” value was 50-70%. For the same compound, the “bacterial burden in lung and spleen tissues” value in data set [6] (vs untreated control mice) was “significantly reduced bacterial burden”. In addition, the “M. abscessus infection (CFU)” value in data set [7] was “significantly decreased infection”. For the same compound, the “total number of p62 puncta in macrophages” value in data set [8] is reported as “significantly increased”. Also, in data set [8] (24 hpi), the “co-localization of H37Rv and p62” value is on record as “increased”. Besides, the “total cell ROS in Mtb-infected Atg5 KO BMDMs” value in data set [9] (3 hour treatment) was “increased ROS signal”. Also, in data set [9] (24 hours, 5 nM), the “total cell ROS in Mtb-infected Nox2 KO BMDMs” value was “significant increase in ROS” and the “total cell ROS in Mtb-infected wild type BMDMs” value is “induced ROS”. Moreover, the “mitochondrial ROS production” value in data set [10] was “increased”. For the same compound, the ECAR result in data set [11] is “decrease”. In addition, in data set [12], the “levels of IL-6, TNF-α, IL-1α/β, and IL-10” value was “No significant difference”. The autophagy flux result in data set [13] is recorded as “No changes”. Moreover, the “co-localization of Mtb and NOX2” value in data set [14] is given as “increased”. In data set [15], the IC50 (commonly the concentration that inhibits the measured activity by half) was approximately 0.075 µM. Moreover, the “concentration that inhibits FAO in intact hearts” value in [16] was 100 nM. Further, the Cmax (in general, the maximum level reached in the sampled fluid or tissue) in data set [17] was 313 nM.
As to `C=C(C)[C@H]1Cc2c(ccc3c2O[C@@H]2COc4cc(OC)c(OC)cc4[C@@H]2C3=O)O1` [rotenone], the “mitochondrial ROS production” value in [10] is “increased”.
As for antimycin, the “mitochondrial ROS production” value in data set [10] is “increased”.
